These are literature values, as cited in patent publication US7705151B2, “1,6 Naphthridines useful as inhibitors of SYK kinase” (Boehringer Ingelheim Pharmaceuticals, Inc., priority 2001, dated 2010).

Regarding `Cc1ccc2c(=O)c3ccccc3n(CCCN)c2c1C.O=C(O)C(=O)O` [ER-27319, 3,4-dimethyl-10-(3-aminopropyl)-9-acridone oxalate], the “inhibition of anti-IgE mediated degranulation” value in the data set on rodent mast cells and with human mast cells was “inhibit anti-IgE mediated degranulation” throughout.
